For 16 compounds, IC50 results are on record in PMC11858653, “Design, Synthesis and Bioactive Evaluation of Topo I/c-MYC Dual Inhibitors to Inhibit Oral Cancer via Regulating the PI3K/AKT/NF-κB Signaling Pathway” (Molecules, 2025).

The test system of one assay is NCI-H460. The assay is described as follows: MTT antiproliferative assay, NCI-H460. It is filed as cell-based, human. Conditions: mean ± SD. The method, then:
(§1) Having evaluated their Topo I inhibitory activity, the antiproliferative activity of the target compounds against some common human cancer cell lines (NCI-H460, A549, ACHN, Cal27 and MGC-803) and one normal cell line (SV-HUC-1) was tested via an MTT assay. TPT, the first Topo I inhibitor approved in clinics, and cisplatin (CDDP), a commonly selected anticancer drug for treating head and neck malignancies, were used as the positive controls.
(§2) Human oral cancer Cal27 cells were seeded in 96-well plates and incubated overnight in 180 μL of medium containing 10% Fetal Bovine Serum (Gibco, San Francisco, CA, USA). […] Then, 10 μL of 5 mg/mL MTT solution was added to each well and incubated at 37 °C for 4 h. After 4 h of incubation at 37 °C, the MTT-containing medium was removed and DMSO was added to each well and the absorbance at 570 nm and 630 nm was measured using a microplate reader (CYTATION 3, Burton, Westwood, NJ, USA). Survival/% = (mean OD of experimental group/mean OD of control group) × 100%. Each test was repeated at least three times.

The test system of a further assay is A549. The assay is described as follows: MTT antiproliferative assay, A549. It is filed as cell-based, human. As to conditions: mean ± SD. The method, then:
as §1, §2

The subject of another assay is ACHN. The assay is described as follows: MTT antiproliferative assay, ACHN. The class given is cell-based, human. As to conditions: 48 h, mean ± SD. The method, then: as §1, §2
Another assay relates to Cal27. The assay is described as follows: MTT antiproliferative assay, Cal27. Conditions: mean ± SD. It is filed as cell-based, human. The method, then: as §1, §2
A further assay concerns MGC-803. As to the kind of experiment: MTT antiproliferative assay, MGC-803. It is filed as cell-based, human. Conditions: mean ± SD. The method, then: as §1, §2
The subject of a further assay is SV-HUC-1. As to the kind of experiment: MTT assay, normal cell line SV-HUC-1. It is filed as cell-based. As to conditions: mean ± SD. The method, then: as §1, §2

For `CC[C@@]1(O)C(=O)OCc2c1cc1n(c2=O)Cc2cc3c(CN(C)C)c(O)ccc3nc2-1` [TPT, topotecan, reference compound], the IC50 amounted to 21.4 ± 1.33 µM in the assay on NCI-H460 (Homo sapiens, NCI-H460, 48 h); 3.84 ± 0.56 µM with A549 (Homo sapiens, A549, 48 h); 4.32 ± 0.63 µM in the assay on ACHN (Homo sapiens, ACHN); 2.33 ± 0.12 µM in the assay on Cal27 (Homo sapiens, CAL-27, 48 h); 6.36 ± 1.09 µM in the assay on MGC-803 (Homo sapiens, MGC-803, 48 h); 30.8 ± 1.58 µM in the assay with SV-HUC-1 (SV-HUC1, 48 h).
With `O=S1(=O)c2ncccc2-c2nc(NCCCn3ccnc3)c3ccccc3c21` [7aj, 5-((3-(1H-Imidazol-1-yl)propyl)amino)pyrido[3′,2′:4,5]thieno[3,2-c]isoquinoline 11,11-dioxide], the half-inhibitory concentration (IC50) is above 100 µM in the assay on NCI-H460 (Homo sapiens, NCI-H460, 48 h); above 100 µM with A549 (Homo sapiens, A549, 48 h); above 100 µM in the assay with ACHN (Homo sapiens, ACHN); above 100 µM with Cal27 (Homo sapiens, CAL-27, 48 h); above 100 µM with MGC-803 (Homo sapiens, MGC-803, 48 h); above 100 µM with SV-HUC-1 (SV-HUC1, 48 h).
As to `Cc1cc(-c2ccccc2)nc2c1-c1nc(NCCN3CCCCC3)c3ccccc3c1S2(=O)=O` [7ce, 7-Methyl-9-phenyl-5-((2-(piperidin-1-yl)ethyl)-amino)pyrido[3′,2′:4,5]thieno[3,2-c]isoquinoline 11,11-dioxide], the IC50 in the assay with NCI-H460 (48 h) is 93 ± 8.03 µM; with A549 (48 h), 86.5 ± 3.15 µM; in the assay on ACHN, above 100 µM; in the assay on Cal27 (48 h), 56.8 ± 2.59 µM; in the assay with MGC-803 (48 h) it was 94 ± 2.15 µM; in the assay with SV-HUC-1 (48 h) it was above 100 µM.
As for `Cc1cc(-c2ccccc2)nc2c1-c1nc(NCCCN3CCOCC3)c3ccccc3c1S2(=O)=O` [7ci, 7-Methyl-5-((3-morpholinopropyl)amino)-9-phenylpyrido[3′,2′:4,5]thieno[3,2-c]isoquinoline 11,11-dioxide], the 50% inhibitory concentration (IC50) with NCI-H460 (48 h), in the assay with A549 (48 h), in the assay with ACHN, in the assay with Cal27 (48 h), in the assay on MGC-803 (48 h) and with SV-HUC-1 (48 h) was above 100 µM in each case.
Regarding `O=S1(=O)c2ncccc2-c2nc(NCCN3CCCCC3)c3ccccc3c21` [7ae, 5-((2-(Piperidin-1-yl)ethyl)amino)pyrido[3′,2′:4,5] thieno[3,2-c]isoquinoline 11,11-dioxide], the concentration for half-maximal inhibition (IC50) is 16.9 ± 0.78 µM in the assay on NCI-H460 (Homo sapiens, NCI-H460, 48 h); above 100 µM in the assay on A549 (Homo sapiens, A549, 48 h); 61.7 ± 4.9 µM with ACHN (Homo sapiens, ACHN); 7.96 ± 2.24 µM in the assay with Cal27 (Homo sapiens, CAL-27, 48 h); 14.2 ± 2.46 µM in the assay on MGC-803 (Homo sapiens, MGC-803, 48 h); 15.2 ± 2.43 µM in the assay on SV-HUC-1 (SV-HUC1, 48 h).
Consider `O=S1(=O)c2ncccc2-c2nc(N3CCCC3)c3ccccc3c21` [7al, 5-(Pyrrolidin-1-yl)pyrido[3′,2′:4,5]thieno[3,2-c]isoquinoline 11,11-dioxide], for which the IC50 is above 100 µM in the assay on NCI-H460 (Homo sapiens, NCI-H460, 48 h); above 100 µM in the assay on A549 (Homo sapiens, A549, 48 h); above 100 µM in the assay on ACHN (Homo sapiens, ACHN); above 100 µM in the assay on Cal27 (Homo sapiens, CAL-27, 48 h); above 100 µM with MGC-803 (Homo sapiens, MGC-803, 48 h); above 100 µM with SV-HUC-1 (SV-HUC1, 48 h).
For the compound `CCN(CC)CCNc1nc2c(c3ccccc13)S(=O)(=O)c1ncccc1-2` [7ab, 5-((2-(Diethylamino)ethyl)amino)pyrido[3′,2′:4,5] thieno[3,2-c]isoquinoline 11,11-dioxide], the IC50 in the assay with NCI-H460 (Homo sapiens, NCI-H460, 48 h) was 59.7 ± 9.65 µM; in the assay on A549 (Homo sapiens, A549, 48 h), 42.6 ± 1.89 µM; in the assay with ACHN (Homo sapiens, ACHN) it was above 100 µM; in the assay with Cal27 (Homo sapiens, CAL-27, 48 h) it was 23.8 ± 1.08 µM; in the assay on MGC-803 (Homo sapiens, MGC-803, 48 h) it was 47 ± 2.43 µM; with SV-HUC-1 (SV-HUC1, 48 h) it was 21.6 ± 3.19 µM.
`Cc1cc(-c2ccccc2)nc2c1-c1nc(NCCN(C)C)c3ccccc3c1S2(=O)=O` [7ca, 5-((2-(Dimethylamino)ethyl)amino)-7-methyl-9-phenylpyrido[3′,2′:4,5]-thieno[3,2-c]isoquinoline 11,11-dioxide]: the half-inhibitory concentration (IC50) in the assay on NCI-H460 (48 h) was above 100 µM; with A549 (48 h) it was above 100 µM; with ACHN, above 100 µM; with Cal27 (48 h), above 100 µM; with MGC-803 (48 h) it was 53.1 ± 3.78 µM; in the assay with SV-HUC-1 (48 h), above 100 µM.
For the compound `CCN(CC)CCNc1nc2c(c3ccccc13)S(=O)(=O)c1nc(-c3ccccc3)cc(C)c1-2` [7cb, 5-((2-(Diethylamino)ethyl)amino)-7-methyl-9-phenylpyrido[3′,2′:4,5]thieno[3,2-c]isoquinoline 11,11-dioxide], the IC50 in the assay with NCI-H460 (48 h) was above 100 µM; in the assay on A549 (48 h), 37.39 ± 0.21 µM; in the assay on ACHN it was above 100 µM; in the assay with Cal27 (48 h), 20.3 ± 2.34 µM; in the assay on MGC-803 (48 h), above 100 µM; in the assay on SV-HUC-1 (48 h) it was above 100 µM.
As for `O=S1(=O)c2ncccc2-c2nc(NCCCN3CCOCC3)c3ccccc3c21` [7ai, 5-((3-Morpholinopropyl)amino)pyrido[3′,2′:4,5] thieno[3,2-c]isoquinoline 11,11-dioxide], the 50% inhibitory concentration (IC50) in the assay with NCI-H460 (Homo sapiens, NCI-H460, 48 h) was above 100 µM; with A549 (Homo sapiens, A549, 48 h), above 100 µM; in the assay with ACHN (Homo sapiens, ACHN), above 100 µM; in the assay with Cal27 (Homo sapiens, CAL-27, 48 h), above 100 µM; in the assay with MGC-803 (Homo sapiens, MGC-803, 48 h) it was above 100 µM; in the assay on SV-HUC-1 (SV-HUC1, 48 h), above 100 µM.
With `Cc1cc(-c2ccccc2)nc2c1-c1nc(NCCN3CCCC3)c3ccccc3c1S2(=O)=O` [7cc, 7-Methyl-9-phenyl-5-((2-(pyrrolidin-1-yl)ethyl)amino)pyrido[3′,2′:4,5]thieno[3,2-c]isoquinoline 11,11-dioxide], the IC50 with NCI-H460 (48 h), with A549 (48 h), with ACHN, in the assay with Cal27 (48 h), in the assay with MGC-803 (48 h) and in the assay on SV-HUC-1 (48 h) was above 100 µM throughout.
On to `Cc1cc(-c2ccccc2)nc2c1-c1nc(NCCCn3ccnc3)c3ccccc3c1S2(=O)=O` [7cj, 5-((3-(1H-imidazol-1-yl)propyl)amino)-7-methyl-9-phenylpyrido[3′,2′:4,5]thieno[3,2-c]isoquinoline 11,11-dioxide], for which the concentration for half-maximal inhibition (IC50) in the assay on NCI-H460 (48 h), in the assay with A549 (48 h), in the assay on ACHN, with Cal27 (48 h), in the assay with MGC-803 (48 h) and with SV-HUC-1 (48 h) was above 100 µM each time.
Consider `O=S1(=O)c2ncccc2-c2nc(NCCN3CCOCC3)c3ccccc3c21` [7ad, 5-((2-Morpholinoethyl)amino)pyrido[3′,2′:4,5]thieno[3,2-c]isoquino-line 11,11-dioxide], for which the IC50 was above 100 µM with NCI-H460 (Homo sapiens, NCI-H460, 48 h); above 100 µM in the assay on A549 (Homo sapiens, A549, 48 h); above 100 µM in the assay with ACHN (Homo sapiens, ACHN); above 100 µM in the assay with Cal27 (Homo sapiens, CAL-27, 48 h); above 100 µM with MGC-803 (Homo sapiens, MGC-803, 48 h); above 100 µM with SV-HUC-1 (SV-HUC1, 48 h).
Regarding `CN(C)CCNc1nc2c(c3ccccc13)S(=O)(=O)c1ncccc1-2` [7aa, 5-((2-(Dimethylamino)ethyl)amino)pyrido[3′,2′:4,5] thieno[3,2-c]isoquinoline 11,11-dioxide], the half-inhibitory concentration (IC50) in the assay with NCI-H460 (Homo sapiens, NCI-H460, 48 h) is 59 ± 3.81 µM; in the assay on A549 (Homo sapiens, A549, 48 h), above 100 µM; with ACHN (Homo sapiens, ACHN), 20.5 ± 4.82 µM; in the assay with Cal27 (Homo sapiens, CAL-27, 48 h) it was 14.4 ± 4.75 µM; in the assay with MGC-803 (Homo sapiens, MGC-803, 48 h) it was 21.6 ± 0.64 µM; in the assay on SV-HUC-1 (SV-HUC1, 48 h) it was 20.8 ± 3.83 µM.
`Cc1cc(-c2ccccc2)nc2c1-c1nc(NCCN3CCOCC3)c3ccccc3c1S2(=O)=O` [7cd, 7-Methyl-5-((2-morpholinoethyl)amino)-9-phenylpyrido[3′,2′:4,5]thieno[3,2-c]isoquinoline 11,11-dioxide]: the concentration for half-maximal inhibition (IC50) in the assay on NCI-H460 (48 h) was above 100 µM; with A549 (48 h), 78.9 ± 2.86 µM; in the assay with ACHN, above 100 µM; with Cal27 (48 h) it was above 100 µM; in the assay with MGC-803 (48 h) it was above 100 µM; in the assay on SV-HUC-1 (48 h), above 100 µM.
With `Cc1cc(C)c2c(n1)S(=O)(=O)c1c-2nc(NCCCn2ccnc2)c2ccccc12` [7bj, 5-((3-(1H-Imidazol-1-yl)propyl)amino)-7,9-dimethylpyrido[3′,2′:4,5]thieno[3,2-c]isoquinoline 11,11-dioxide], the concentration for half-maximal inhibition (IC50) is above 100 µM with NCI-H460 (Homo sapiens, NCI-H460, 48 h); above 100 µM in the assay with A549 (Homo sapiens, A549, 48 h); above 100 µM in the assay with ACHN (Homo sapiens, ACHN); above 100 µM with Cal27 (Homo sapiens, CAL-27, 48 h); above 100 µM in the assay with MGC-803 (Homo sapiens, MGC-803, 48 h); above 100 µM in the assay with SV-HUC-1 (SV-HUC1, 48 h).
